From patent US12448369B2 (Edgewise Therapeutics, Inc., priority 2023, dated 2025)

Legend:
[1] = target: T1, Porcine ventricle myofibrils (ventricular myosin ATPase) (Sus scrofa, UniProt P79293); assay: Myofibril ATPase assay, porcine ventricle myofibrils; format: biochemical, porcine (Yucatan minipigs); settings: porcine ventricle myofibrils
T1 construct: Myofibrils from porcine cardiac muscle was isolated from the left ventricle of Yucatan minipigs; tissue Exemplar Genetics; host or cells: left ventricle of Yucatan minipigs, myofibrils prepared in house
Method in brief: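 In a coupled enzyme format, ADP from myofibril ATPase drives NADH oxidation, monitored kinetically at 340 nm for 75 min using minipig ventricle myofibrils. Effective concentrations giving 25% loss or gain of activity relative to vehicle were calculated from 4-parameter fits.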

[2] = system: Rabbit Psoas myofibrils (skeletal myosin ATPase); assay: Myofibril ATPase assay, rabbit psoas (skeletal) myofibrils; format: biochemical; settings: rabbit psoas myofibrils
Method in brief: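 Values derive from concentration–response fits of NADH consumption rates at 340 nm, normalized to vehicle-only wells, as Y75 or Y125. Myofibril ATP turnover was linked to NADH via PK/LDH in Ca/EGTA-buffered PIPES, pH 7.0, and read over 75 min.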

[3] = system: Porcine atria myofibrils (atrial myosin ATPase); assay: Myofibril ATPase assay, porcine atria myofibrils; format: biochemical; settings: porcine atria myofibrils
Method in brief: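 Atrial myofibril ATPase measured by NADH-coupled absorbance at 340 nm; vehicle-normalized slopes fitted to give Y75 or Y125 values.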

[4] = Y75 value (75% activity relative to no compound)

T1 sequence (P79293 whole entry): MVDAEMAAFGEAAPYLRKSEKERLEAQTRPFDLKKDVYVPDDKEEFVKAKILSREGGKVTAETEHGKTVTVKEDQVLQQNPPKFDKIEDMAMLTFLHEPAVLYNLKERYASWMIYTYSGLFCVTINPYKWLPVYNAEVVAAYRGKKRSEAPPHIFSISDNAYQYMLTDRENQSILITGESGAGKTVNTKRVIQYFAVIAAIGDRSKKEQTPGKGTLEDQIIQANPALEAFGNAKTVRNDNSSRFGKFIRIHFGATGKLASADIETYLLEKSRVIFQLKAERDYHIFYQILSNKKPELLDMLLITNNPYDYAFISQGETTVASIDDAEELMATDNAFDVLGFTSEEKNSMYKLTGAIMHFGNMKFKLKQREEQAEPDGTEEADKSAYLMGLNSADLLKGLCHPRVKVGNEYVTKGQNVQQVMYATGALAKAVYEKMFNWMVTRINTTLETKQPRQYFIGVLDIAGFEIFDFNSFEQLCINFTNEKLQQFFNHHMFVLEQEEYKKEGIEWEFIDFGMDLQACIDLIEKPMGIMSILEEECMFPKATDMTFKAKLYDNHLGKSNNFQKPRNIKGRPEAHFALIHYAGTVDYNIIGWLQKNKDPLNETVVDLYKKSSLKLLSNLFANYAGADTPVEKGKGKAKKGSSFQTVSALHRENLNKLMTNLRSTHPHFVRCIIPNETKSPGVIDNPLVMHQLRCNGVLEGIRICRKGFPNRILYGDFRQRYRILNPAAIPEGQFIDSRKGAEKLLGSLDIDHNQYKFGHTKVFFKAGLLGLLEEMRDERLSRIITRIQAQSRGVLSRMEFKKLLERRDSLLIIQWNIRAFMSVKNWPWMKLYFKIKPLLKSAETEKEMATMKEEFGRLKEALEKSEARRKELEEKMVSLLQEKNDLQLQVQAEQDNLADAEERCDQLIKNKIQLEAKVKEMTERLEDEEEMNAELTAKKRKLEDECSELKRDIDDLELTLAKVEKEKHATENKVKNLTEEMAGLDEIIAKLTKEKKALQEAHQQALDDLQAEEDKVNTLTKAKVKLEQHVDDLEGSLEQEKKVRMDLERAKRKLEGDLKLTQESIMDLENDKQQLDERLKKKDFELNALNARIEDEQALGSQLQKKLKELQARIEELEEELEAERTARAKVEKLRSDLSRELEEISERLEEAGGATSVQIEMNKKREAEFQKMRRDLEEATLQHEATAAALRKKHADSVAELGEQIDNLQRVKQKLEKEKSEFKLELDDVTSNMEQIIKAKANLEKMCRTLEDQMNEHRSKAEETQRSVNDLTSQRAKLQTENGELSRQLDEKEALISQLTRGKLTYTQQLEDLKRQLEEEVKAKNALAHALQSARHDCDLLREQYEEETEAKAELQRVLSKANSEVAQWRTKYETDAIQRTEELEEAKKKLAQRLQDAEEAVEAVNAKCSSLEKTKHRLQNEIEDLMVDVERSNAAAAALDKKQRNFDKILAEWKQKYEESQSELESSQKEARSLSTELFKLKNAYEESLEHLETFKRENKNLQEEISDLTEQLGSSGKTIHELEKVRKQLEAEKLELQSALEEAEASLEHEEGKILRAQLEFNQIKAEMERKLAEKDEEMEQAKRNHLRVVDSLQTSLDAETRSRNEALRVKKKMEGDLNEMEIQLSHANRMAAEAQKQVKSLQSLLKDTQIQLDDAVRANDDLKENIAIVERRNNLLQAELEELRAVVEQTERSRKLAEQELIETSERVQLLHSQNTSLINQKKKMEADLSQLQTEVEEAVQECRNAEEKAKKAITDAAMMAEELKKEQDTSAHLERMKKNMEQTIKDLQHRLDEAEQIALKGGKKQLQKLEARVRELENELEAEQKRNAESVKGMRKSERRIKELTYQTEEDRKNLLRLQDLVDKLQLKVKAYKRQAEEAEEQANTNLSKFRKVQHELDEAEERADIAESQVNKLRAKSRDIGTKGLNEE

| SMILES | Ventricular EC25 ([1]; Y75 value (no ‡ mark)) [µM] | Skeletal EC25 ([2]; Y75 value (no ‡ mark)) [µM] | Atrial EC25 ([3]; Y75 value (no ‡ mark)) [µM] | Ventricular EC25 ([1]; Y75 value) [µM] | Skeletal EC25 ([2]; Y75 value) [µM] | Atrial EC25 [3, 4] [µM] | Skeletal EC25 ([2]; ‡ Y125 value, not a Y75 value (125% activity relative to no compound)) |
| --- | --- | --- | --- | --- | --- | --- | --- |
| Cc1c(C(F)(F)C(=O)N[C@H](C)c2ncc(C#N)cn2)c(=O)[nH]c2ccc(F)c(C#N)c12 (single isomer, unassigned) [compound 2521] | 1.83 | 0.41 | 0.32 |  |  |  |  |
| Cc1c(CC(=O)N[C@H](C)c2ncc(C#N)cc2F)c(=O)[nH]c2ccnc(C(F)(F)F)c12 (single isomer, unassigned) [compound 226] |  |  |  | 100.00 | 0.27 | 7.58 |  |
| C[C@@H](NC(=O)C1(c2cc3cc(F)ccc3[nH]c2=O)CC1)c1cc(C#N)ccn1 (single isomer, unassigned) [compound 2536] | 100.00 |  | 30.59 |  |  |  | 77.37‡ μM |
| Cc1c(F)ccc2[nH]c(=O)c(C(F)(F)C(=O)N[C@H](C)c3ncc(C#N)cc3F)c(C)c12 (single isomer, unassigned) [compound 4811] | 0.46 | 0.59 | 0.73 |  |  |  |  |
| Cc1cc(C#N)cnc1[C@H](C)NC(=O)Cc1c(O)c2c(C)c(F)ccc2[nH]c1=O [compound 1121] | 100.00 | 100.00 | 100.00 |  |  |  |  |
| Cc1nc(C#N)ncc1[C@H](C)NC(=O)Cc1c(C)c2c(F)c(F)ccc2[nH]c1=O [compound 1132] | 0.05 | 0.02 | 0.10 |  |  |  |  |
| Cc1c(CC(=O)N[C@H](C)c2ncc(C#N)cc2F)c(=O)[nH]c2ccc(OC(F)(F)F)nc12 [compound 455] |  |  |  | 100.00 | 5.74 | 7.11 |  |
| C[C@H](NC(=O)Cc1c(C(F)F)c2cc(F)ccc2[nH]c1=O)c1ccc(F)cc1F [compound 106] | 0.20 | 0.04 | 0.05 |  |  |  |  |
| C[C@H](NC(=O)[C@@H](C)c1c(C(F)(F)F)c2cc(F)ccc2[nH]c1=O)c1ccc(F)cc1F (single isomer, unassigned) [compound 57] | 100.00 | 0.07 | 0.15 |  |  |  |  |
| C[C@H](NC(=O)[C@H](C)c1cc2c(Cl)c(O)ccc2[nH]c1=O)c1ccc(F)cc1F (single isomer, unassigned) [compound 86] | 100.00 | 100.00 | 100.00 |  |  |  |  |
| C[C@@H](NC(=O)C1(c2cc3c(F)c(F)ccc3[nH]c2=O)CC1)c1cc(C#N)ccn1 (single isomer, unassigned) [compound 2583] | 100.00 | 100.00 | 4.31 |  |  |  |  |
| Cc1nccc2[nH]c(=O)c(CC(=O)N[C@@H]3COc4cccnc43)c(C)c12 (single isomer, unassigned) [compound 251] |  |  |  | 100.00 | 100.00 | 100.00 |  |
| Cc1c(CC(=O)N[C@@H](C)c2ccc(F)cc2F)c(=O)[nH]c2ccnc(F)c12 [compound 391] |  |  |  | 0.29 | 0.01 | 0.05 |  |
| CCOc1ccc2[nH]c(=O)c(CC(=O)N[C@@H](C)c3ccc(F)cc3F)c(C)c2n1 [compound 414] |  |  |  | 13.93 | 0.03 | 0.16 |  |
